From paper PMC6385671, “An integrated-molecular-beacon based multiple exponential strand displacement amplification strategy for ultrasensitive detection of DNA methyltransferase activity” (Chemical Science, 2018)

Target: Dam MTase (Escherichia coli, UniProt P0AEE8)
Assay: coupled fluorescence assay (molecular beacon methylation, DpnI cleavage, strand displacement amplification) with commercial Dam MTase
Format: biochemical

Chain of Dam MTase (P0AEE8 whole entry): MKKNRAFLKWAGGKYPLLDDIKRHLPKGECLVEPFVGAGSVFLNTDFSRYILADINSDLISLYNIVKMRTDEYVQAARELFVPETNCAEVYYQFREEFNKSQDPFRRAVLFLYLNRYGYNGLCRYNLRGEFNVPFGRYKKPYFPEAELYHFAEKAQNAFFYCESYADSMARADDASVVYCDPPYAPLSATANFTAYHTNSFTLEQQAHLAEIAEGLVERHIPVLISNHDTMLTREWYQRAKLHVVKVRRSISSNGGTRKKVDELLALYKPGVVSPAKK

O=c1[nH]cc(F)c(=O)[nH]1 [5-fluorouracil] was tested. Which IC50 did it give?
The IC50 was 710 nM.
